# Numbers after ± are expanded uncertainties.
# Test: Molar enthalpy of transition or fusion
# Conditions: Crystal; Adiabatic calorimetry
compound,measurement,value
CC(C)(C)c1ccc(Oc2ccccc2)cc1 [4-tert-butylphenyl phenyl ether],Molar enthalpy of transition or fusion,5.255 ± 0.0335 kcal/mol

# Source: the NIST ThermoML archive (doi:10.1016/j.jct.2015.03.019)
